Data taken from publication PMC6349167, “Inhibiting the urokinase‐type plasminogen activator receptor system recovers STZ‐induced diabetic nephropathy” (Journal of Cellular and Molecular Medicine, 2018).
Where two headings read alike, the source gives them in different places. Non-standard residues stand in square brackets, D forms with d. Residues, ends and D or L forms follow the SMILES beside them. αMeF = C[C@](N)(Cc1ccccc1)C(=O)O; Aib = CC(C)(N)C(=O)O

Tests used:
in vivo [1] = conditions: male, Sprague-Dawley, rat, sc, 20 mg/kg
Procedure: (§1) Four weeks after diabetes induction, three control or three STZ rats were used for the pharmacokinetics (PK) and the tissue distribution study. To this aim, rats received a single dose of UPARANT succinate dissolved in PBS (vehicle) at 20 mg/kg via subcutaneous injection according to a previous study.22 To investigate a possible therapeutic role of UPARANT, the drug was administered at 1 or 8 mg/kg daily for 5 days in 15 rats for each concentration used. […] Rats were killed with 65 mg/kg pentobarbital. Blood was collected in EDTA tubes to then isolate plasma by centrifugation and kidneys were removed.
(§2) PK and UPARANT tissue distribution were as previously described.21 Briefly, for plasma PK, a volume of 0.2 mL blood was extracted at fixed time intervals (0.25, 0.5, 1, 2, 4, 6, 8, 12, 16 and 24 hours after dose) from the femoral vein. Blood was centrifuged (12 000 g for 20 minutes) and plasma was treated with 1% formic acid in methanol. Samples were stored at −80°C. The animals used for the PK study were killed at 24 hours. Kidneys and livers were dissected and processed with 1% formic acid in methanol. The concentration of UPARANT was evaluated via LC‐MS/MS.

[2] = male, Sprague-Dawley, rat, in vivo, sc, 20 mg/kg, 24 h
Procedure: as §1, §2

in vivo [3] = conditions: male, Sprague-Dawley, rat, sc, 20 mg/kg; remark: listed apart in the source
Procedure: (§3) Four weeks after diabetes induction, three control or three STZ rats were used for the pharmacokinetics (PK) and the tissue distribution study. To this aim, rats received a single dose of UPARANT succinate dissolved in PBS (vehicle) at 20 mg/kg via subcutaneous injection according to a previous study.22 To investigate a possible therapeutic role of UPARANT, the drug was administered at 1 or 8 mg/kg daily for 5 days in 15 rats for each concentration used.
(§4) PK and UPARANT tissue distribution were as previously described.21 Briefly, for plasma PK, a volume of 0.2 mL blood was extracted at fixed time intervals (0.25, 0.5, 1, 2, 4, 6, 8, 12, 16 and 24 hours after dose) from the femoral vein. Blood was centrifuged (12 000 g for 20 minutes) and plasma was treated with 1% formic acid in methanol. Samples were stored at −80°C. The animals used for the PK study were killed at 24 hours. […] The concentration of UPARANT was evaluated via LC‐MS/MS.
(§5) A two phase model equation Ct = C0(e^-kelim^ t-e^-kabs^ t) with first order kinetics (absorption and elimination) was used to evaluate the kinetic parameters. Both C0 corresponding to the plasma concentration extrapolated at t=0 from the elimination phase and kelim and kabs, elimination and absorption kinetic parameters, were determined by best fit to the equation of the averaged time point concentrations. The terminal half-life t1/2 corresponding to 0.693/kelim and time tmax at the maximum plasma concentration Cmax were determined from the first derivative equal zero of the kinetic equation. The AUCinf, area under the concentration curve versus time from 0 to infinity was calculated by the integral of the kinetic equation.

[4] = rat, in vivo, sc, 20 mg/kg
Procedure: as §3, §4, §5

tissue level at time at 24 h (in vivo [1]; concentration of UPARANT in the kidney): 45900 ± 3600 ng/g | tissue level at time at 24 h (in vivo [1]; concentration of UPARANT in the liver): 21100 ± 2400 ng/g | concentration of UPARANT in the kidney [2]: 28.2 ± 4.3 µg/g | concentration of UPARANT in the liver [2]: 20.4 ± 7.5 µg/g | half-life (in vivo [3]): 2.2 h | AUC(0-inf) (in vivo [3]; AUCinf): 15900 ng·h/mL | Cmax (in vivo [3]; Cmax): 2600 ng/mL | tmax (in vivo [3]; tmax): 2.3 h | AUCinf ([4]; male, Sprague-Dawley): 16100 ng·h/mL | Cmax ([4]; male, Sprague-Dawley): 2300 ng/mL | tmax ([4]; male, Sprague-Dawley): 2.2 h | kabs [4]: 0.6 ± 0.2 h⁻¹ | t1/2 [4]: 2.2 h
SMILES: CC(=O)N[C@@H](CCCNC(=N)N)C(=O)NC(C)(C)C(=O)N[C@@H](CCCNC(=N)N)C(=O)N[C@@](C)(Cc1ccccc1)C(N)=O [UPARANT, Ac‐L‐Arg‐Aib‐L‐Arg‐L‐Cα(Me)PheNH2] (Ac-R[Aib]R[αMeF]-NH2)
